Measured values taken from patent publication US7939263B2, “Compositions and methods for treating and diagnosing cancer” (The Regents of the University of Michigan, priority 2005, dated 2011).

Test system: PE13 passaged human breast tumor cells
Experiment: Xenograft tumor growth after gamma secretase inhibition
Type: in vivo
Protocol: A) The average tumor volume from L-685-458 treated (n=5) versus control (n=7) animals is plotted for each day measured over 37 days. B) The tumor volume of individual L-685-458 treated and control mice is plotted for each day measured.
In alternative embodiments, gamma secretase activity was decreased using the small-molecule inhibitor L-685,458 (Yan et al., 2004, J. Neurosci. 24:2942) and the effect on tumor growth was assessed in a xenograft model. 20,000 PE13 passaged human breast tumor cells were injected into the mammary fat pads of NOD/SCID mice. The mice were then injected subcutaneously daily with 9 mg/kg L-685,458 (n=5) or vehicle control (n=7) for 25 days. Starting on day 11, the tumor volume was measured three times a week for a total of 48 days. […] The tumor volumes for individual mice are plotted in FIG. 13B. Thus inhibiting gamma secretase activity by using a small molecule gamma secretase inhibitor predicted to reduce Notch signaling reduced tumor growth.

CC(C)C[C@H](NC(=O)[C@H](Cc1ccccc1)C[C@@H](O)[C@H](Cc1ccccc1)NC(=O)OC(C)(C)C)C(=O)N[C@@H](Cc1ccccc1)C(N)=O [L-685,458]
growth of injected tumor cells (20,000 PE13 cells in mammary fat pads of NOD/SCID mice, 9 mg/kg subcutaneously daily for 25 days (n=5) vs vehicle control (n=7)): significantly inhibited the growth of injected tumor cells | average tumor volume (NOD/SCID mice, 9 mg/kg s.c. daily for 25 days, measured three times a week from day 11, total 48 days, vs vehicle control): reduced compared to control animals throughout the study
